Data on two compounds can be found in patent US7157092B1, “Acyl pseudodipeptides, preparation method and pharmaceutical compositions containing same” (Om Pharma, priority 1998, dated 2007).

Like-named read-outs stand apart in the source and are kept apart here.

For one assay, the system named is LmCPb antigen. In kind it is in vivo, CBA mice. To be noted: for extent of proliferation, times higher than cultures from mice administered antigen alone (without adjuvant): in presence of LmCPb (15 μg/ml).
For the next assay, the system named is DC-6 cells. As to the kind of experiment: α TNF production by predendritic cells at DC-6 stage (ELISA). To be noted: 10 μg/ml; 4, 6 and 24 hr; FIG. 10.
A further assay relates to ovalbumin. As to the kind of experiment: Subcutaneous immunization with ovalbumin antigen: specific serum immunoglobulins (ELISA). The format is in vivo, BALB/c mice. To be noted: for adjuvant effect on titer of antibodies specifically raised against ovalbumin: IgG1 and IgG2a subclasses, after one or two injections, FIGS. 25-27; for Immunoglobulins specifically raised against ovalbumin of IgG1 subclass / Immunoglobulins specifically raised against ovalbumin of IgG2a subclass / Immunoglobulins specifically raised against ovalbumin of IgM subclass: s.c. injections days 0 and 14, ovalbumin 50 μg, adjuvant 50 μg per injection, ± SD. How it is done:
To this end, 50 BALB/c mice (females, aged 8 weeks at the beginning of treatment) were divided into 5 groups as follows:
Antigen: An ovalbumin stock solution is prepared at a concentration of 0.5 mg/ml in 0.9% NaCl.
The negative control consists of a 0.9% NaCl solution without antigen.
Antigen-Adjuvant mixture: Adjuvants are allowed to stand for 20 minutes at 37° C. before vortex treatment for 3 minutes. Then the antigen and (0.9%) NaCl are added as specified in the above Table, and the antigen/adjuvant mixture is vortexed briefly before placing it on a rotary stirrer for 15 minutes at room temperature, then the whole mixture is vortexed for 3 minutes.
Immunization regimen: Injections are scheduelled on days 0 and 14. The mixtures stated in the preceeding table are administered by subcutaeous route (75 μl on the side, 150 μl in total per animal). Blood sampling is scheduelled on days 14 and 28 (orbital puncture).
Assay for anti-ovalbumin immunoglobulins: The following serum Immunolglobulins which are specifically directed against ovalbumin are assayed in duplicate by ELISA: IgG1, IgG2a, and IgM. Briefly stated, microtiter plates (NUNC Immunoplate, Roskilde, DK) are incubated (overnight coating) at 40C together with 100 μl ovalbumin (0.5 μg) in bicarbonate buffer pH 9.6). After washing with 0.5% Tween-20 (Merck Hohenbrunn, D), sera are diluted 50-, 200- and 800-fold (diluting solution: phosphate buffered saline (PBS)+1% bovine serum albumin (BSA, Sigma, St. Louis, Mo., USA)+0.02% Tween-20)). 100 μl of each dilute serum sample are added to the wells. Incubation lasts 45 minutes at 37° C.
After a second washing step, IgG1, IgG2a and IgM specifically directed to ovalbumin are incubated for 30 minutes at 37° C. together with 100 μl of anti-IgG1 antibodies (anti-mouse rat antibody)-peroxydase conjugate (Serotec, Oxford, UK), IgG2a-peroxydase conjugate (Pharmingen, San Diego, Calif., USA) and IgM-biotin conjugate (Pharmingen, San Diego, Calif., USA), diluted beforehand in PBS/BSA/Tween buffer (250-, 1000-, 500-fold dilutions, respectively). For IgM, after an extra washing step, a 3rd incubation step is required (30 min. at 37° C.) with a 1:100 dilute solution of streptavidin-peroxydase conjugate (Dako, Glostrup, DK).
After the washing step, 100 μl of a phenylene 1,2-diamine solution (OPD, Merck, Darmstadt, GFR) are added to detect peroxydase-coupled anti-IgG1 and anti-IgG2 secondary antibodies (whereas for IgM, the reagent being used is 3′, 3′, 5′,5′-tetramethylbenzidine (TMB, Sigma, St. Louis, Mo., USA). After a 20 minute incubation period at room temperature, the reaction is stopped by adding 100 μl of 2N H2SO4. Absorbance values are read at 490 nm with a Bio-Rad 3550 model plate reader
Results of each reading at 490 nm are given in arbitrary units (A.U.) per ml. This is achieved by comparing each sample with a standard prepared from different dilutions of a sample pool collected from group B at day 28 (animals injected with ovalbumin alone). As clearly understood by this term, the sample pool diluted 50-fold is at a concentration of 1000 A.U./ml. Individual results are then corrected for the corresponding dilution factor (50, 200, or 800 times). Only the mean values of each group and the standard deviation (SD) are herein reported.

In assay [1] the test system is predendritic cells (DC-6). In words: Dendritic cell maturation: FITC-Dextran conjugate incorporation. As to conditions: 0.02% g to 25 μg per ml; FIGS. 4, 5.
Assay [2] relates to gp63 antigen. The format is in vivo, CBA mice. To be noted: 2 s.c. injections gp63 2 μg with 2×50 μg OM-294-MP or 200 μg BCG.
Assay [3] relates to gp63 antigen. In kind it is in vivo, CBA mice.
Another assay deals with monocytes and DC-6 cells. In words: IL-12 p70 production by monocytes and DC-6 cells (ELISA). As to conditions: 10 μg/ml, in presence of γ IFN; FIGS. 11, 12.
Setting [4] is: 2 injections LmCPb 3–5 μg with 2×50 μg OM adjuvant or 200 μg BCG, in vitro: No stimulant.
Where [5] appears, read: 2 injections LmCPb with adjuvant, in vitro: Amastigotes 2 × 10^−6/ml.
Where [6] appears, read: 2 injections LmCPb with adjuvant, in vitro: Amastigotes 6 × 10^−6/ml.
[7] abbreviates: 2 injections LmCPb with adjuvant, in vitro: Amastigotes 17 × 10^−6/ml.
Setting [8] is: 2 injections LmCPb with adjuvant, in vitro: Con A 5 μg/ml.
[9] abbreviates: 2 injections LmCPb with adjuvant, in vitro: LmCPb 0.6 μg/ml.
The mark [10] stands for this setting: 2 injections LmCPb with adjuvant, in vitro: LmCPb 1.7 μg/ml.
Where [11] appears, read: 2 injections LmCPb with adjuvant, in vitro: LmCPb 5 μg/ml.
The mark [12] stands for this setting: 2 injections LmCPb with adjuvant, in vitro: LmCPb 15 μg/ml.

Take `CCCCCCCCCCCC(=O)O[C@H](CCCCCCCCCCC)CC(=O)NC(CCOP(=O)(O)O)C(=O)NCCCC(COP(=O)(O)O)NC(=O)C[C@H](O)CCCCCCCCCCC` (stereo partly drawn) [OM-294-DP, 3-[(R)-3-dodecanoyloxytetradecanoylamino]-4-oxo-5-aza-9-[(R)-3-hydroxytetradecanoylamino]decan-1,10-diol 1, 10-bis(dihydrogenphosphate)]: the 3H-TdR take-up in the assay on LmCPb antigen (setting [4]) is recorded as 21.8 ± 2.2 cpm × 10^−3/ml; in the assay with LmCPb antigen (setting [5]), 61.0 ± 1.7 cpm × 10^−3/ml; in the assay with LmCPb antigen (setting [6]), 81.5 ± 5.5 cpm × 10^−3/ml; in the assay with LmCPb antigen (setting [7]), 78.2 ± 7.8 cpm × 10^−3/ml; with LmCPb antigen (setting [8]), 135.9 ± 3.7 cpm × 10^−3/ml; in the assay on LmCPb antigen (setting [9]), 40.9 ± 12.7 cpm × 10^−3/ml. For the same compound, the 3H-TdR take-up in the assay on LmCPb antigen (setting [10]) was determined as 57.2 ± 10.9 cpm × 10^−3/ml; with LmCPb antigen (setting [11]), 70.2 ± 9.2 cpm × 10^−3/ml; in the assay with LmCPb antigen (setting [12]), 100.0 ± 6.5 cpm × 10^−3/ml. For the same compound, the “extent of proliferation, times higher than cultures from mice administered antigen alone (without adjuvant)” value in the assay on LmCPb antigen was found to be 28 times. Further, in the assay on DC-6 cells, the “α TNF production by DC-6 cells” value is recorded as “only a minor stimulating effect”. The “adjuvant effect on titer of antibodies specifically raised against ovalbumin” value in the assay with ovalbumin is recorded as “significantly increase”.

Consider `CCCCCCCCCCCC(=O)O[C@H](CCCCCCCCCCC)CC(=O)NC(CCOP(=O)(O)O)C(=O)NCCCC(CO)NC(=O)C[C@H](O)CCCCCCCCCCC` (stereo partly drawn) [OM-294-MP, 3-[(R)-3-dodecanoyloxytetradecanoylamino]-4-oxo-5-aza-9-[(R)-3-hydroxytetradecanoylamino]-decane-1,10-diol 1-dihydrogenphosphate], for which the “differenciation of DC-6 into DC-9 cells (dose vs. response of FITC-Dextran incorporation)” value in assay [1] was “outstanding capacity to induce differenciation of DC-6 into DC-9 cells”. The “murine T lymphocyte proliferation, 3H-TdR take-up” value in the assay with gp63 antigen [2] (gp63 in vitro 0 μg/ml) is given as 2.8 ± 0.7 cpm × 10^−3/ml; with gp63 antigen [2] (gp63 in vitro 0.16 μg/ml), 65 ± 11 cpm × 10^−3/ml; in the assay on gp63 antigen [2] (gp63 in vitro 0.31 μg/ml) it was 92 ± 11 cpm × 10^−3/ml; with gp63 antigen [2] (gp63 in vitro 0.62 μg/ml), 93 ± 13 cpm × 10^−3/ml; in the assay on gp63 antigen [2] (gp63 in vitro 1.25 μg/ml), 39 ± 7 cpm × 10^−3/ml. Besides, the 3H-TdR take-up with LmCPb antigen (setting [4]) came out at 17.1 ± 2.5 cpm × 10^−3/ml; in the assay with LmCPb antigen (setting [5]) it was 28.4 ± 8.3 cpm × 10^−3/ml; in the assay with LmCPb antigen (setting [6]), 66.1 ± 4.5 cpm × 10^−3/ml; in the assay on LmCPb antigen (setting [7]), 68.7 ± 2.3 cpm × 10^−3/ml; in the assay with LmCPb antigen (setting [8]) it was 151.4 ± 3.7 cpm × 10^−3/ml; in the assay on LmCPb antigen (setting [9]) it was 22.9 ± 2.8 cpm × 10^−3/ml. Further, the 3H-TdR take-up with LmCPb antigen (setting [10]) is 34.1 ± 4.1 cpm × 10^−3/ml; with LmCPb antigen (setting [11]), 70.3 ± 6.4 cpm × 10^−3/ml; in the assay with LmCPb antigen (setting [12]), 124.2 ± 12.0 cpm × 10^−3/ml. In addition, in the assay on LmCPb antigen, the “extent of proliferation, times higher than cultures from mice administered antigen alone (without adjuvant)” value was 23 times. The “α TNF production by DC-6 cells” value with DC-6 cells is “in a way similar to LPS”. Further, the values for the IL-4 concentration in the assay on gp63 antigen [3] (gp63 in vitro 0), in the assay on gp63 antigen [3] (gp63 in vitro 0.3) and in the assay on gp63 antigen [3] (gp63 in vitro 0.6) were under 8 pg/mL, 125 pg/mL and 83 pg/mL, respectively. Further, the “γ IFN concentration” value in the assay on gp63 antigen [3] (gp63 in vitro 0) was under 9 pg/mL; in the assay with gp63 antigen [3] (gp63 in vitro 0.3), 135 pg/mL; in the assay with gp63 antigen [3] (gp63 in vitro 0.6), 120 pg/mL. Besides, the “IL-12 p70 production in monocytes and DC-6 cells” value in the assay with monocytes and DC-6 cells is listed as “induced in presence of γ IFN”. Also, the “Immunoglobulins specifically raised against ovalbumin of IgG1 subclass” value came out at 19 ± 8 Arbitrary units/ml in the assay with ovalbumin (Day 14) and 40 ± 69 Arbitrary units/ml in the assay on ovalbumin (Day 28). Besides, the “Immunoglobulins specifically raised against ovalbumin of IgG2a subclass” value in the assay on ovalbumin (Day 14) came to 11253 ± 12169 Arbitrary units/ml; in the assay on ovalbumin (Day 28), 4192 ± 2104 Arbitrary units/ml. In addition, the “Immunoglobulins specifically raised against ovalbumin of IgM subclass” value in the assay with ovalbumin (Day 14) is on record as 19742 ± 5667 Arbitrary units/ml; with ovalbumin (Day 28), 9827 ± 2021 Arbitrary units/ml. Further, in the assay on ovalbumin, the “adjuvant effect on titer of antibodies specifically raised against ovalbumin” value is given as “significantly increase”.
